Like-named read-outs stand apart in the source and are kept apart here.
Target: DP IV (Homo sapiens, UniProt P27487)
Assay: DP IV inhibition IC50, parallel-synthesis compounds tested directly following synthesis (without purification)
Assay type: biochemical
Set-up: IC50 DP4; other: tested directly following parallel synthesis, without purification; compounds of formula (Ib) from parallel synthesis, tested directly following synthesis
Description: Compounds were immediately tested regarding their activity as DP IV inhibitors.
Substances are screened for inhibition of dipeptidyl peptidase (DP IV) by their ability to inhibit the hydrolysis of the DP IV specific substrate Glycyl-Prolyl-4-Nitroanilide (Gly-Pro-pNA). All compounds are diluted in DMSO and IC50 will be determined with 11 serial dilutions (1:2) starting with an final concentration of 100 μM. The final DMSO concentration in the assay is 5% (v/v). The method was automated using a Tecan Genesis Freedom liquid handler and a Genius Pro (Tecan) microplate reader.
DP IV from porcine kidney (pDP IV) or recombinant human DP IV (rhDP IV) is diluted in HEPES buffer to a final activity of approximately 40-50 μU*ml^−1. The DP IV is stored in a cooling rack (4° C.) on the liquid handler.
The assay may becarried out at room temperature using Freedom liquid handler connected with a Genios Pro microplate reader. Each sample is measured in duplicate. Each sample stock solution is prediluted with DMSO in a ratio of 1:5 in a polypropylen 96-well plate. From this predilution 10 serial (1:2) dilutions in DMSO are prepared. 13.5 μl of the 11 DMSO dilutions and DMSO alone are transferred to the measurement microplate (duplicates) and 86.5 μl water, 100 μl HEPES buffer and 50 μl substrate solution are added to each well. The enzymatic reaction is started by addition of 20 μl enzyme solution to each well, and then the microplate is immediately transferred to the microplate reader.
After short mixing (20 s) the release of 4-Nitroanilin (pNA) is monitored at 405 nm for 30 cycles (approx. 18 min).
Post assay calculations are done by the Magellan (Tecan) and Graphit Software. The linear slopes are calculated for each well and averaged for the duplicates. The residue activities are calculated in relation to a sample containing only solvent instead of inhibitor and expressed in %. Residue activities are plotted against the log of inhibitor concentrations and IC50 is calculated by an 4-parameter fitting ranging from 0 to 100%.

[1] = DP IV inhibition, compounds of formula (Ib) from parallel synthesis, tested directly following synthesis (without purification), read-out: IC50
[2] = tested directly following parallel synthesis, without purification, read-out: IC50 DP4

Structure (SMILES)	IC50 [1]	IC50 [2]
NCc1c(-c2ccc(Cl)cc2Cl)ncn1Cc1ccc(Cl)c(Cl)c1 [77b, C-[3-(3,4-Dichloro-benzyl)-5-(2,4-dichloro-phenyl)-3H-imidazol-4-yl]-methylamine]	7.3 µM	
NCc1c(-c2ccc(Cl)cc2Cl)ncn1CCCCCCO [16b, 6-[5-Aminomethyl-4-(2,4-dichloro-phenyl)-imidazol-1-yl]-hexan-1-ol]	12.7 µM	
CCn1cnc(-c2ccc(Cl)cc2Cl)c1CN [122b, C-[5-(2,4-Dichloro-phenyl)-3-ethyl-3H-imidazol-4-yl]-methylamine]	46 µM	
CC(N)c1c(-c2ccc(Cl)cc2Cl)ncn1Cc1ccc(F)c(F)c1 (centres unmarked) [68b, 1-[5-(2,4-Dichloro-phenyl)-3-(3,4-difluoro-benzyl)-3H-imidazol-4-yl]-ethylamine]	26.2 µM	
NCc1c(-c2ccc(F)cc2F)ncn1Cc1ccccc1OC(F)(F)F [Example 84a, C-[5-(2,4-Difluoro-phenyl)-3-(2-trifluoromethoxy-benzyl)-3H-imidazol-4-yl]-methylamine]		9.1 µM
COc1cccc(Cn2cnc(-c3ccc(F)cc3Cl)c2CN)c1 [Example 9a, C-[5-(2-Chloro-4-fluoro-phenyl)-3-(3-methoxy-benzyl)-3H-imid-azol-4-yl]-methyl-amine]		16.3 µM
NCc1c(-c2ccc(F)cc2F)ncn1Cc1cccc(C(F)(F)F)c1 [Example 75a, C-[5-(2,4-Difluoro-phenyl)-3-(3-tri-fluoromethyl-benzyl)-3H-imid-azol-4-yl]-methyl-amine]		28.9 µM
NCc1c(-c2ccc(Cl)cc2Cl)ncn1Cc1ccccc1C(F)(F)F [Example 51a, C-[5-(2,4-Dichloro-phenyl)-3-(2-tri-fluoromethyl-benzyl)-3H-imid-dazol-4-yl]-methyl-amine]		3.7 µM
CC(C)N(CCn1cnc(-c2ccc(Cl)cc2Cl)c1CN)C(C)C [6b, {2-[5-Aminomethyl-4-(2,4-dichloro-phenyl)-imidazol-1-yl]-ethyl}-diisopropyl-amine]	10.9 µM	
Cc1ccc(Cn2cnc(-c3ccc(Cl)cc3Cl)c2CN)cc1 [Example 56a, C-[5-(2,4-Dichloro-phenyl)-3-(4-methyl-benzyl)-3H-imid-azol-4-yl]-methyl-amine]		2.8 µM
COc1ccc(Cn2cnc(-c3ccc(Cl)cc3Cl)c2CN)cc1 [35b, C-[5-(2,4-Dichloro-phenyl)-3-(4-methoxy-benzyl)-3H-imidazol-4-yl]-methylamine]	11.8 µM	
NCc1c(-c2ccc(F)cc2Cl)ncn1Cc1ccc(Cl)cc1 [Example 22a, C-[3-(4-Chloro-benzyl)-5-(2-chloro-4-fluoro-phenyl)-3H-imid-azol-4-yl]-methyl-amine]		37.9 µM
NCc1c(-c2ccc(Cl)cc2Cl)ncn1CCc1cccnc1 [9b, C-[5-(2,4-Dichloro-phenyl)-3-(2-pyridin-3-yl-ethyl)-3H-imidazol-4-yl]-methylamine]	7.3 µM	
NCc1c(-c2ccc(Cl)cc2Cl)ncn1CCc1ccccn1 [85b, C-[5-(2,4-Dichloro-phenyl)-3-(2-pyridin-2-yl-ethyl)-3H-imidazol-4-yl]-methylamine]	24.4 µM	
Cc1ccc(Cn2cnc(-c3ccc(F)cc3Cl)c2CN)o1 [Example 4a, C-[5-(2-Chloro-4-fluo-ro-phenyl)-3-(5-meth-yl-furan-2-yl-methyl)-3H-imid-azol-4-yl]-methyl-amine]		34.3 µM
NCc1c(-c2ccc(F)cc2Cl)ncn1Cc1c(F)cccc1Cl [Example 13a, C-[3-(2-Chloro-6-fluoro-benzyl)-5-(2-chloro-4-fluoro-phenyl)-3H-imid-azol-4-yl]-methyl-amine]		36.1 µM
NCc1c(-c2ccc(Cl)cc2Cl)ncn1Cc1ccncc1 [94b, C-[5-(2,4-Dichloro-phenyl)-3-pyridin-4-ylmethyl-3H-imidazol-4-yl]-methylamine]	8.2 µM	
NCc1c(-c2ccc(Cl)cc2Cl)ncn1CCC1=CCCCC1 [65b, C-[3-(2-Cyclohex-1-enyl-ethyl)-5-(2,4-dichloro-phenyl)-3H-imidazol-4-yl]-methylamine]	2.8 µM	
COc1ccc(CCn2cnc(-c3ccc(Cl)cc3Cl)c2CN)cc1 [45b, C-{5-(2,4-Dichloro-phenyl)-3-[2-(4-methoxy-phenyl)-ethyl]-3H-imidazol-4-yl}-methylamine]	27.1 µM	

Structure (SMILES)	IC50 [1]	IC50 [2]
NCCCc1c(-c2ccc(Cl)cc2Cl)ncn1CCc1cccc(Cl)c1 [107b, 3-[3-[2-(3-Chloro-phenyl)-ethyl]-5-(2,4-dichloro-phenyl)-3H-imidazol-4-yl]-propylamine]	42.4 µM	
NCc1c(-c2ccc(Cl)cc2Cl)ncn1Cc1ccc(Cl)cc1Cl [93b, C-[3-(2,4-Dichloro-benzyl)-5-(2,4-dichloro-phenyl)-3H-imidazol-4-yl]-methylamine]	35.2 µM	
NCc1c(-c2ccc(F)cc2Cl)ncn1Cc1ccccc1 [Example 15, C-[3-Benzyl-5-(2-chloro-4-fluoro-phenyl)-3H-imid-azol-4-yl]-methyl-amine]		10.9 µM
NCc1c(-c2ccc(Cl)cc2Cl)ncn1CCCO [47b, 3-[5-Aminomethyl-4-(2,4-dichloro-phenyl)-imidazol-1-yl]-propan-1-ol]	10.9 µM	
NCc1c(-c2ccc(Cl)cc2Cl)ncn1CC(c1ccccc1)c1ccccc1 [31b, C-[5-(2,4-Dichloro-phenyl)-3-(2,2-diphenyl-ethyl)-3H-imidazol-4-yl]-methylamine]	45.1 µM	
NCc1c(-c2ccc(Cl)cc2Cl)ncn1CC1CCCO1 (centres unmarked) [Example 17b, C-[5-(2,4-dichloro-phenyl)-3-(tetrahydro-furan-2-ylmethyl)-3H-imidazol-4-yl]-methylamine]	1.9 µM	
NCc1c(-c2ccc(Cl)cc2Cl)ncn1Cc1ccccc1 [Example 47a, C-[3-Ben-zyl-5-(2,4-dichloro-phenyl)-3H-imid-azol-4-yl]-methyl-amine]		0.1 µM
NCc1c(-c2ccc(F)cc2Cl)ncn1Cc1ccc(Cl)c(Cl)c1 [Example 25a, C-[5-(2-Chloro-4-fluoro-phenyl)-3-(3,4-di-chloro-benzyl)-3H-imid-azol-4-yl]-methyl-amine]		33.4 µM
NCc1c(-c2ccc(Cl)cc2Cl)ncn1Cc1ccc(Cl)cc1 [Example 54a, C-[3-(4-Chloro-benzyl)-5-(2,4-dichloro-phenyl)-3H-imid-azol-4-yl]-methyl-amine]		1.9 µM
COc1ccc(Cn2cnc(-c3ccc(Cl)cc3Cl)c2CN)cc1OC [5b, C-[5-(2,4-Dichloro-phenyl)-3-(3,4-dimethoxy-benzyl)-3H-imidazol-4-yl]-methylamine]	19.9 µM	
NCc1c(-c2ccc(Cl)cc2Cl)ncn1CCN1CCOCC1 [10b, C-[5-(2,4-Dichloro-phenyl)-3-(2-morpholin-4-yl-ethyl)-3H-imidazol-4-yl]-methylamine]	12.7 µM	
C[C@H](N)c1c(-c2ccc(Cl)cc2Cl)ncn1CCc1c[nH]c2cc(F)ccc12 [110b, (S)-1-{5-(2,4-Dichloro-phenyl)-3-[2-(6-fluoro-1H-indol-3-yl)-ethyl]-3H-imidazol-4-yl}-ethylamine]	42.4 µM	
CCNCCn1cnc(-c2ccc(Cl)cc2Cl)c1CN [69b, {2-[5-Aminomethyl-4-(2,4-dichloro-phenyl)-imidazol-1-yl]-ethyl}-ethyl-amine]	19 µM	
NCc1c(-c2ccc(F)cc2Cl)ncn1Cc1ccccc1C(F)(F)F [Example 19a, C-[5-(2-Chloro-4-fluoro-phenyl)-3-(2-tri-fluorometh-yl-benzyl)-3H-imid-azol-4-yl]-methyl-amine]		35.2 µM
NCCCc1c(-c2ccc(Cl)cc2Cl)ncn1CCNc1ccc([N+](=O)[O-])cn1 [74b, {2-[5-(3-Amino-propyl)-4-(2,4-dichloro-phenyl)-imidazol-1-yl]-ethyl}-(5-nitro-pyridin-2-yl)-amine]	12.7 µM	
Cc1cnc(Cn2cnc(-c3ccc(Cl)cc3Cl)c2CN)cn1 [27b, C-[5-(2,4-Dichloro-phenyl)-3-(5-methyl-pyrazin-2-ylmethyl)-3H-imidazol-4-yl]-methylamine]	19.9 µM	
CC(C)(C)Cn1cnc(-c2ccc(Cl)cc2Cl)c1CN [Example 53a, C-[5-(2,4-Dichloro-phenyl)-3-(2,2-dimethyl-propyl)-3H-imid-azol-4-yl]-methyl-amine]		1 µM
NCc1c(-c2ccc(Cl)cc2Cl)ncn1CCc1ccc(F)cc1 [55b, C-{5-(2,4-Dichloro-phenyl)-3-[2-(4-fluoro-phenyl)-ethyl]-3H-imidazol-4-yl}-methylamine]	3.7 µM	
NCc1c(-c2ccc(Cl)cc2Cl)ncn1Cc1cccc(Cl)c1Cl [46b, C-[3-(2,3-Dichloro-benzyl)-5-(2,4-dichloro-phenyl)-3H-imidazol-4-yl]-methylamine]	2.8 µM	
